According to US20230088286A1, “USP7 INHIBITOR FOR USE IN THE TREATMENT OF CANCER” (ALMAC DISCOVERY LIMITED, priority 2020, published 2023):
Like-named read-outs stand apart in the source and are kept apart here.

Assays:
KSol = type: physicochemical
LogD7.4 = type: physicochemical; conditions: pH 7.4
CT-26 tumours = test: Histology and immunofluorescence of CT-26 tumours (ADC-159); type: in vivo, mouse
Procedure: FIG. 36: ADC-159 prevents tumour vessel maturation in CT-26 syngeneic mouse model in vivo. FFPE tumour blocks were prepared after 15 days of treatment with vehicle and ADC-159 and co-stained with endothelial cell marker CD31 (green), pericyte marker NG2 (red) and DAPI (blue; n=5 blocks/group). Mature blood vessels have fine branching positive for CD31 and NG2 staining (A, left image) which is lost when treated with USP7 inhibitor (B, right image).
FIG. 37: ADC-159 decreases tumour area and increases necrosis area in the CT-26 syngeneic mouse model in vivo. […] FFPE tumour blocks were prepared followed by quantification of tumour and necrosis using HALO software.
After rinsing with running water, the specimens were transferred to the Vacuum Tissue Processor (HistoCore PEARL, Leica) for dehydration, then embedded into FFPE blocks using Tissue embedding center (EG1150, Leica). FFPE blocks were sectioned with a manual rotary microtome (RM2235, Leica), 4 μm thickness/section. Sections were processed for staining with hematoxylin and eosin (H&E) or for immunofluorescent (IF) analysis. For IF sections were stained with primary antibodies specific for CD31 (abcam), NG2 (sigma) and cell nuclei were counterstained with DAPI. All stained sections were scanned with Pannoramic Digital Slide Scanners for 40× magnification (3[…], Pannoram ic SCAN). All the images were analyzed with HALOTM platform were tumour area and large areas of necrosis were quantified. Non-tumour tissue on the periphery was excluded.

LNCaP = LNCaP cell EC50; type: cell-based; conditions: Homo sapiens
[1] = system: primary human fibroblasts (HDF) in hypoxic chamber; test: sVEGF ELISA in primary fibroblasts under hypoxia; type: cell-based; conditions: 48 h
Source text: FIG. 9: USP7 inhibition decreases VEGF levels in fibroblasts under hypoxia.
In response to wounding and during tumour growth, activated fibroblasts secrete synthesizers and modifiers of the ECM but also soluble angiogenic growth factors such as VEGF. Although VEGF gene expression can be controlled by multiple transcription factors, its major regulator is hypoxia-inducible factor 1 (HIF-1). HIF-1 mediates activation of VEGF transcription in response to hypoxia in solid tumours and in various malignant cell lines.
To assess its potency in a functional assay, HDF were treated with vehicle or various concentrations of USP7 inhibitor ADC-159 and incubated for 48 hours in hypoxic chamber. Cell culture supernatants were collected, and secreted VEGF was measured by ELISA.
For the co-culture experiments, 5×10^4 cancer cells were seeded in transwell in 0.5 mL complete growth medium and placed on the top of 0.1×10^6 fibroblasts plated in 12-well in 1 mL low serum growth media overnight. Following day cancer cells were washed with PBS and media replaced with reduced (1%) serum growth media. 0.5×10^6 PBMC were plated on top of fibroblasts, incubated for 45 min and activated with CD3 (1 μg/ml final concentration) and CD28 (5 μg/ml final concentration). […] Monoculture experiments, 0.1×10^6 cells were seeded in 12-well in 1 mL of complete growth media (cancer cells) or low serum growth media (fibroblasts) and incubated overnight. […] Afterwards, cell culture media was collected, cell debris were removed by centrifugation the concentration of VEGF in the cell culture supernatants was measured using the human/mouse VEGF immunoassay Quantikine ELISA kit (R&D systems, Minneapolis, Minn., USA) according to the manufacturer's instructions. For the intracellular VEGF detection, total protein concentration was determined by BCA (Pierce Chemical, USA) and VEGF levels determined using the same kit described above.

HDF and HUVEC co-culture = test: In vitro co-culture tube formation assay; type: cell-based, human; conditions: for tube formation, pre-formed tubes: treated after tube formation; for tube length, de novo tube formation: treated prior to tube formation, 14 days
Procedure: Representative pictures taken at day 14 are shown. Tube formation was quantified by measuring tube length ([…]) and is shown.
HDF were seeded in 96-well plate (2500 cells/well). Once HDF formed a monolayer, media was removed and HUVECs (2500 cells/well) were seeded on top of HDF. […] The effect on existing vessels was assayed by allowing tubes to form prior to treatment. Cells were treated every 3-days during 14 days of incubation, followed by washing with PBS and fixation with 4% formaldehyde for 15 min at room temperature (RT). Cells were permeabilized with 1× PBS containing 0.1% Triton X-100 for 5 min at RT and blocked 30 min in 1% BSA/PBS. Afterwards, cells were incubated with CD31 antibody (Thermo Fisher, MA5-13188) […] followed by incubation with secondary Alexa fluor 488F goat-anti-mouse (Thermo Fisher, A28175) at 1/2000 dilution for 3 h at RT. Immunolabeled samples were counterstained with Hoechst 33342 nuclear dye (Thermo Fisher, 62249) at 1/1000 dilution for 15 min. Tubes were visualized with IN Cell Analyzer 2000 using a 2× objective. Tube length was measured and quantified using the AngioTool software for each imaging session (available in the public domain at https://ccrod.cancer.gov/confluence/display/ROB2/Downloads

RS4; 11 = test: RS4;11 cell EC50; type: cell-based; conditions: Homo sapiens
CYP3A4 = CYP3A4 (Homo sapiens, UniProt P08684); test: TDI shift CYP3A4; type: in vitro ADME; conditions: value in brackets; shift N/A
CYP3A4, sequence (P08684 whole entry): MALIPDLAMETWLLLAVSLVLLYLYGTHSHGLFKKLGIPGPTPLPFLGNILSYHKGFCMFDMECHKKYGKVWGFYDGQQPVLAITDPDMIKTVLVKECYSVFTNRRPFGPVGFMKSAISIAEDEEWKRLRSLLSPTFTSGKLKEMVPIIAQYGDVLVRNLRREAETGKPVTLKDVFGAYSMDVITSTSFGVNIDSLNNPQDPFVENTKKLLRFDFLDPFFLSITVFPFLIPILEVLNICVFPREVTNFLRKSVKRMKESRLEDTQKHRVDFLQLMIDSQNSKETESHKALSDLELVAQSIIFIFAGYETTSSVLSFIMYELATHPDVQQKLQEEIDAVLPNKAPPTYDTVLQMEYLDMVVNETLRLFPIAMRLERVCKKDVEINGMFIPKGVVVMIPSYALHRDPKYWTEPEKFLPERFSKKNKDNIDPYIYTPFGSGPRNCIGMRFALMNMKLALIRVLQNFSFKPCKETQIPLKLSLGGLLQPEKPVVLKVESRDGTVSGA

USP7 = USP7 (Homo sapiens, UniProt Q93009); test: USP7 FP; type: biochemical
USP7, sequence (Q93009 whole entry): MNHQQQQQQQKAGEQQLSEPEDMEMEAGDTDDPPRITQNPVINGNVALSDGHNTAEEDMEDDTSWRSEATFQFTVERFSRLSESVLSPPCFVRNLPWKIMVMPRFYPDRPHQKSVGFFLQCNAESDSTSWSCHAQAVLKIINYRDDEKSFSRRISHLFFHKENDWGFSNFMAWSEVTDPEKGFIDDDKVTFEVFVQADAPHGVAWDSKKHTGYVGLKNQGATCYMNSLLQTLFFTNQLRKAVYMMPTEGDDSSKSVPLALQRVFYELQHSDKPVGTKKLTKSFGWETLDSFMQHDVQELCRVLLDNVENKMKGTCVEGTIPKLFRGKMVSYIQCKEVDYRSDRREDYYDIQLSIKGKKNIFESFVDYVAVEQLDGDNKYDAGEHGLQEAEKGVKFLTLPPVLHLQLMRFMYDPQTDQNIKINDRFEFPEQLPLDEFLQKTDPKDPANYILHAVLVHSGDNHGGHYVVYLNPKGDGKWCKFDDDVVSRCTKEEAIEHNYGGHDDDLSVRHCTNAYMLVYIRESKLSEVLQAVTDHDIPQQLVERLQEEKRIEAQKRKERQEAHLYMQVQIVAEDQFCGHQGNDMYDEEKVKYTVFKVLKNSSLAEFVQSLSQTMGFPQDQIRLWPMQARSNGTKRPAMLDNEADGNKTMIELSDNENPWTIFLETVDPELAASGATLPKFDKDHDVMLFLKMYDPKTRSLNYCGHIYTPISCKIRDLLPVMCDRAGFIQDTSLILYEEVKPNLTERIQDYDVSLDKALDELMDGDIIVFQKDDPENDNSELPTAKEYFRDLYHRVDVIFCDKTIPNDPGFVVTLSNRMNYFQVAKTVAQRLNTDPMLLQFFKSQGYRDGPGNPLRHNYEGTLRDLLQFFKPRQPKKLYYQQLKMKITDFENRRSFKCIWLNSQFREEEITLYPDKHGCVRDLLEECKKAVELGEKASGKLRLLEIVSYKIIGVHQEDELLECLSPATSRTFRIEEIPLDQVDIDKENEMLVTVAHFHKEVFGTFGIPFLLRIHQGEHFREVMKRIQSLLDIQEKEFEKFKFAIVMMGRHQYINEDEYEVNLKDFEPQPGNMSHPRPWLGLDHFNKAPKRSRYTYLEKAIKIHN

[2] = system: CT-26 mouse cancer cell line; test: CT-26 cell viability in vitro; type: cell-based
Procedure: CT-26 syngeneic models are in vivo models to monitor the effect of compounds on the TME. […] After 72 hours cell viability was measured by CellTiter-Glo®.

Hep CLhep (m) = type: in vitro ADME, mouse
tumour VEGFA mRNA = test: RNA-seq of syngeneic CT-26 tumour samples; type: in vivo, mouse
Procedure: Finally, mode of action of AD-04 in vivo was analysed by RNA-seq. […] Moreover, individual genes within HIF1A pathway were differentially modulated upon USP7 inhibition.

[3] = system: primary fibroblast, immortalised fibroblast, endothelial cells and cancer cells; test: Proliferation by live cell time-lapse imaging; type: cell-based, human; conditions: fibroblasts or endothelial cells
Procedure: During a proliferation assay, pictures were taken every 2 hours using a time-lapse microscope. Charts were used to display cell confluency over time.
To examine the effect of USP7 inhibition on proliferation of primary fibroblast, immortalised fibroblast, endothelial cells and cancer cells, live cell time-lapse imaging was used.

Structure (SMILES) | KSol (KSol) [µM] | LogD7.4 (LogD7.4) | necrosis area at the tumour site (CT-26 tumours; 100 mg/kg, compared to vehicle) | tumour area (CT-26 tumours; 100 mg/kg, compared to vehicle) | tumour vessel formation (CD31/NG2 staining) (CT-26 tumours; 15 days of treatment) | EC50 (LNCaP) [nM] | VEGF secretion under hypoxia [1] | tube formation, pre-formed tubes (HDF and HUVEC co-culture) | tube length, de novo tube formation (HDF and HUVEC co-culture) | EC50 (RS4; 11) [nM] | IC50 (CYP3A4) [nM] | IC50 (USP7; asterisk not explained, read-out: USP7 FP IC50 (value in brackets marked *)) [nM] | IC50 (USP7; read-out: USP7 FP IC50) [nM] | sensitivity of CT-26 cell line in vitro [2] | Hep CLhep (m) (Hep CLhep (m)) | tumour VEGFA long isoform mRNA (tumour VEGFA mRNA) | tumour VEGFA short isoform mRNA (tumour VEGFA mRNA) | proliferation [3]
CC1(C(=O)N2CCC(O)(Cn3cnc4c(cc(Cl)n4-c4ccc5c(c4)CCO5)c3=O)CC2)CC1 [ADC-159, 6-Chloro-7-(2,3-dihydrobenzofuran-5-yl)-3-((4-hydroxy-1-(1-methylcyclopropane-1-carbonyl)piperidin-4-yl)methyl)-3,7-dihydro-4H-pyrrolo[2,3-d]pyrimidin-4-One] | 199 | 2.5 | significant increase | significant reduction | prevents tumour vessel formation | 76 | decreased VEGF levels in a dose-dependent manner | did not have significant effect | inhibitory effect | 165 | > 20000 | 159 | 386 | not sensitive | 78 | – | – | –
C[C@H](CC(=O)N1CCC(O)(Cn2cnc3c(-c4ccc(CN)cc4)n(C)nc3c2=O)CC1)c1ccccc1 [AD-04, (R)-3-(4-(Aminomethyl)phenyl)-6-((4-hydroxy-1-(3-phenylbutanoyl)piperidin-4-yl)methyl)-2-methyl-2H-pyrazolo[4,3-d]pyrimidin-7(6H)-one] | – | – | – | – | – | – | decreased in a dose-dependent manner | significantly less pronounced | significant reduction | – | – | – | – | not sensitive | – | increase | decrease | no effect
